# Results taken from patent US8735622B2, “Histone demethylase inhibitors and methods for using the same” (The Regents of the University of Colorado, a body corporate, priority 2011, dated 2014).
# Several values for one entry are separate records, joined by “and”; a condition that tells them apart may be missing. Equal entries are not always repeated.
# What was measured:
# [1] = biological target: T1, human GASC1 (GST-GASC1(1-420)) (Homo sapiens, UniProt Q9H3R0); experiment: GASC1 enzyme activity assay (DELFIA); format: biochemical; conditions: DELFIA, H3K9me3 peptide substrate
# T1 construct: corresponding to amino acid 1-420 was cloned and purified; made in house; host or cells: Escherichia coli BL-21
# T1 sequence (Q9H3R0 1-420): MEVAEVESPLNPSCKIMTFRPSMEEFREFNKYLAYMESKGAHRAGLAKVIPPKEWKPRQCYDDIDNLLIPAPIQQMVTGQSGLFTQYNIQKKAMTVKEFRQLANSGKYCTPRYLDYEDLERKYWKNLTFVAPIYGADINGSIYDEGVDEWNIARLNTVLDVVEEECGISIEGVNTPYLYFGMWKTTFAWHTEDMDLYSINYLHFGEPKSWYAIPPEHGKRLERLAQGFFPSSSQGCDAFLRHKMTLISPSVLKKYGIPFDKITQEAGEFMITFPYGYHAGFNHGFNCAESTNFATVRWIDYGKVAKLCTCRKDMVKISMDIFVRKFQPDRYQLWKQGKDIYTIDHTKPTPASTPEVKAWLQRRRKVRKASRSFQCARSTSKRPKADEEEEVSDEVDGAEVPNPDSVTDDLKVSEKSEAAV
# Experimental: (§1) In order to evaluate the inhibitory activity of 1 in vitro, a GST-fusion protein of the catalytic N-terminus of human GASC1 (gene amplified in squamous cell carcinoma 1) corresponding to amino acid 1-420 was cloned and purified. […] To evaluate the enzyme specificity of 1, the activity of 1 was examined against several other related enzymes in vitro.
# (§2) The enzyme activity assays for GASC1 and JMJD2A were established on the DELFIA platform. DELFIA assays were performed in white, opaque 384-well plates coated with Streptavidin (Perkin Elmer). GST-GASC1(1-420) was diluted to 200 ng/well in 20 mM Tris HCl pH 8.5/2 mM glutathione and added in a volume of 20 μL. Blank wells received Tris/glutathione buffer only. Test compounds were diluted in DMSO and […] was pinned into the wells. Blank and control wells received only compound buffer. The reactions were initiated by the addition of 500 nM biotin-H3(1-20)K9me3 substrate, 10 μM FeSO4, 100 μM alpha-ketoglutarate in a volume of 20 μL, and incubated at room temperature for 60 minutes. The plates were washed 3 times with 100 μL of Wash Buffer (50 mM Tris pH 7.4, 150 mM NaCl, 0.05% Tween 20, 0.2% BSA). […] Time resolved fluorescence was measured after 45 minutes on an Envision Microplate Imager (Perkin Elmer Life Sciences) with 400 μs delay, excitation at 360 nm, and emission at 620 nm.
# JMJD2A = biological target: T2, JMJD2A (Homo sapiens, UniProt O75164); experiment: JMJD2A enzyme activity assay (DELFIA); format: biochemical; conditions: DELFIA
# T2 construct: Recombinant protein preparation of GASC1(1-420), JMJD2A (1-420) and LSD1 (full-length); made in house; host or cells: Escherichia coli BL-21
# T2 sequence (O75164 1-420): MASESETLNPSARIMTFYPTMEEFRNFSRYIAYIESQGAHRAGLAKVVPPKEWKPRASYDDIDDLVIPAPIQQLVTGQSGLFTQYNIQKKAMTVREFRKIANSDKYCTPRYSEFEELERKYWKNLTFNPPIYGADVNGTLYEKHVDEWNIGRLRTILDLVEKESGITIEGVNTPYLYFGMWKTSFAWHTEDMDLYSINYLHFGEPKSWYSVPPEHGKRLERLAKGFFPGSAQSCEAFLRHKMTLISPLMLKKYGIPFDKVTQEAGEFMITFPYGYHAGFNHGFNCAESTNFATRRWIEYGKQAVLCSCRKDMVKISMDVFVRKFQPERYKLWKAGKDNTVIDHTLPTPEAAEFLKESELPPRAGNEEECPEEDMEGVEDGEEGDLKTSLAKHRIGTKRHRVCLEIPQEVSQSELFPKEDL
# Experimental: as §1, §2
# LSD1 = biological target: T3, LSD1 (Homo sapiens, UniProt O60341); experiment: LSD1 formaldehyde dehydrogenase coupled assay; format: biochemical; conditions: in vitro
# T3 construct: LSD1 (full-length) was expressed as glutathione S-transferase (GST) fusions; made in house; host or cells: Escherichia coli BL-21
# Experimental: LSD1 activity was measured in a formaldehyde dehydrogenase coupled assay. 15 μL enzyme mix containing 2.4 μg GST-LSD1 in 20 mM TRIS pH 8.5, 1 mM NAD, 1.5 mU formaldehyde dehydrogenase, 0.5 mM glutathione was added, followed by pin transfer of 100 nL compound. Then reactions were started by addition of 15 μL 75 μM H3(1-20)K4me2 peptide, and NADH fluorescence was measured on a Envision Microplate Imager (Perkin Elmer Life Sciences) with excitation at 345 nm and emission at 460 nm, integration for 400 ms at 10 min and 80 min after peptide addition.
# KYSE150 cells = experiment: Cell viability / growth inhibition assay (CellTiter-Glo); format: cell-based, human; conditions: 48 hours; compound 1 at up to 100 μM
# Text: To examine the cellular activity of the compounds of the invention, oesophageal carcinoma cell line KYSE150 was used in a growth inhibition assay because KYSE150 cells have been reported to contain several copies of the GASC1 gene, and it has been reported that inhibition of GASC1 expression using short hairpin RNA causes a significant reduction of proliferation in KYSE150 cells. […] Without being bound by any theory, it is believed that this low activity in cells was possibly due to the poor cellular uptake of the zwitterion form in which it typically exists under physiological conditions. Therefore, its methyl ester prodrug 2 (FIG. 1a), called methylstat was tested.
# To screen and validate the cellular toxicity of compounds, a cell viability assay was carried out using CellTiter-Glo luminescent cell viability assay kit (Promega, Madison USA). KYSE150 cells were seeded on blank-walled 384-well plates with KYSE medium at densities of 1,000 cells/well. The medium volume for each well was 40 μL. Cells were incubated at 37° C. in 5% CO2/95% air for 24 hours. The medium was removed from each well and replaced with 38 μL, of warmed fresh medium and 2 μL, compound solution in 2% DMSO/98% H2O. The compounds were added into medium at different concentrations with the final concentration of DMSO as 0.1%. After incubation at 37° C. with 5% CO2/95% air for another 48 hours, the plates were equilibrated to room temperature for 30 minutes. 40 μL, of CellTiter-Glo reagent (Promega, Madison USA) was added to each well and mixed for 2 minutes on an orbital shaker. The plate was incubated at room temperature for another 10 minutes to stabilize luminescent signal. The luminescence of each sample was measured in a plate-reading illuminometer (Beckman Coulter DTX 880) with parameters of 1-minute lag time and 0.1 second/well read time. The experiments were performed in triplicate and repeated on two separately initiated cultures.
# GST-fused GASC1(1-420) = biological target: T4, GST-fused GASC1(1-420) (Homo sapiens, UniProt Q9H3R0); experiment: GASC1 enzyme inhibition assay with MS detection; format: biochemical; conditions: 1 μM and 5 μM, 2 hours
# T4 construct: corresponding to amino acid 1-420 was cloned and purified; made in house; host or cells: Escherichia coli BL-21
# T4 sequence (Q9H3R0 1-420): T1 sequence (Q9H3R0 1-420)
# Experimental: Synthetic histone peptides H3K9me3 were incubated with purified GST-tagged GASC1(1-420) in demethylation buffer (50 mM Tris pH 8.0, 2 mM ZnCl2, 1 mM alpha-ketoglutarate, 50 μM FeSO4, 1 mM ascorbic acid) at 37° C. In a typical reaction, 2 μg of modified histone peptides were incubated with 20 μg GST-GASC1(1-420) in a total volume of 40 μL, for 2 hours. Reaction mixtures were concentrated and re-dissolved in 50% methanol in water with 0.1% formic acid followed by ESI-TOF analysis using ABI Q-Star Pulsar.
# HDACs = experiment: Histone deacetylases (HDACs) enzyme inhibition assay (Fluor de Lys); format: biochemical; conditions: in vitro
# Experimental: The enzyme activity assay for HDAC was carried out using Fluor de Lys Fluorescent Assay System (BML-AK500, Enzo Life Sciences Inc, NY USA). The assay was performed as the manufactory guide in white 384-well plates. Time resolved fluorescence was measured on a Beckman Coulter DTX 880 plate reader with 250 ms delay, excitation at 360 nm, and emission at 530 nm.
smiles,measurement,setting,value
O=C(O)/C=C/C(=O)N(O)CCCCNCc1ccc(COC(=O)Nc2cccc3ccccc23)cc1 [Compound 1],IC50,[1],~4.3 µM and 4.3 µM
same,IC50,JMJD2A,~3.4 µM and 3.4 µM
same,inhibition of FAD-dependent HDM LSD1,LSD1,did not significantly inhibit
same,KYSE150 cell growth inhibition,KYSE150 cells,did not show significant growth inhibition
same,inhibition of GASC1-mediated demethylation of H3K9me3 peptide (mass spectrum),GST-fused GASC1(1-420),inhibited GASC1-mediated demethylation of H3K9me3 peptides
same,inhibition of histone deacetylases (HDACs),HDACs,did not significantly inhibit
